Source: patent US20060241122A1, “Combination therapy for the treatment of neoplasms” (priority 2003, published 2006)

Columns and labels:
[1] = system: human colorectal carcinoma HCT116 cells; experiment: Anti-proliferation assay (Alamar Blue metabolism), HCT116 cells; conditions: for Percent inhibition of Alamar Blue Metabolism in HCT116 cells: 72 h;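 as to all read-outs here: cells in 384-well plates exposed to compound combination matrices for 72 h, Alamar Blue fluorescence read (excitation 530 nm), inhibition calculated against mean of vehicle-only wells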
Procedure: Stock solutions (1000×) of each compound were prepared in DMSO and stored at −20° C. Master stock plates of 2-fold or 4-fold serial dilutions of individual compounds were prepared in 384-well plates. Combination matrices of test compounds were generated from these master stock plates by dilution into growth media described above. […] The combination matrices were used immediately and discarded.
The anti-proliferation assays were performed in 384-well plates. […] Cells were diluted in culture media such that 3,000 SKMEL-28 cells, or 1,500 cells for all the other cell lines, were delivered in 35 μl of media into each assay well. Assay plates were incubated for 16-24 hours 37° C.±0.5° C. with 5% CO2. After incubation, 4.5 μl of 10× stock solutions from the combination matrices were added to 40 μl of culture media. Assay plates were further incubated for 72 hours at 37° C.±0.5° C. with 5% CO2. […] Alamar Blue metabolism was quantified by the amount of fluorescence intensity 3.5-5.0 hours after addition. Quantification, using an LJL Analyst AD reader (LJL Biosystems), was taken in the middle of the well with high attenuation, a 100 msec read time, an excitation filter at 530 nm, and an emission filter at 575 nm. For some experiments, quantification was performed using a Wallac Victor^2 reader. Measurements were taken at the top of the well with stabilized energy lamp control; a 100 msec read time, an excitation filter at 530 nm, and an emission filter at 590 nm.

[2] = system: human melanoma SKMEL-28 cells; experiment: Anti-proliferation assay (Alamar Blue metabolism), SKMEL-28 cells; format: cell-based; conditions: 72 h
Description: (§1) The combination matrices were used immediately and discarded.

[3] = system: human pancreatic cancer PANC1 cells; experiment: Anti-proliferation assay (Alamar Blue metabolism), PANC1 cells; format: cell-based; conditions: 72 h
Description: as §1

[4] = system: non-small cell lung carcinoma A549 cells; experiment: Anti-proliferation assay (Alamar Blue metabolism), A549 cells; format: cell-based; conditions: 72 h
Procedure: Inhibition of proliferation was measured by anti-proliferation assay as described below after incubation with the test compound(s) for 72 hours.
as §1
Cells were diluted in culture media such that 3,000 SKMEL-28 cells, or 1,500 cells for all the other cell lines, were delivered in 35 μl of media into each assay well. Assay plates were incubated for 16-24 hours 37° C.±0.5° C. with 5% CO2. […] Assay plates were further incubated for 72 hours at 37° C.±0.5° C. with 5% CO2. […] Alamar Blue metabolism was quantified by the amount of fluorescence intensity 3.5-5.0 hours after addition.
The percent inhibition (% I) for each well was calculated using the following formula: % I=[(avg. untreated wells−treated well)/(avg. untreated wells)]×100 The average untreated well value (avg. untreated wells) is the arithmetic mean of 40 wells from the same assay plate treated with vehicle alone.

[5] = system: human prostate cancer DU145 cells; experiment: Anti-proliferation assay (Alamar Blue metabolism), DU145 cells; format: cell-based; conditions: 72 h
Description: as §1

CCC(C)n1ncn(-c2ccc(N3CCN(c4ccc(OCC5COC(Cn6cncn6)(c6ccc(Cl)cc6Cl)O5)cc4)CC3)cc2)c1=O (centres unmarked) [Itraconazole, itraconazole]
inhibition at 7 µM ([1]; Homo sapiens, HCT-116, read-out: Percent inhibition of Alamar Blue Metabolism, cerivastatin 0 μM, itraconazole 7 μM): 24.3% | inhibition at 28 µM ([1]; Homo sapiens, HCT-116, read-out: Percent inhibition of Alamar Blue Metabolism, cerivastatin 0 μM, itraconazole 28 μM): 27.7% | Percent inhibition of Alamar Blue Metabolism in HCT116 cells ([1]; Table 2: itraconazole 0.87 μM + simvastatin at row conc. c1 (0-48 μM)): 3.9% | Percent inhibition of Alamar Blue Metabolism in HCT116 cells ([1]; Table 2: itraconazole 7 μM + simvastatin at row conc. c1 (0-48 μM)): 18.9% | Percent inhibition of Alamar Blue Metabolism in HCT116 cells ([1]; Table 2: itraconazole 14 μM + simvastatin at row conc. c1 (0-48 μM)): 19.2% | Percent inhibition of Alamar Blue Metabolism in HCT116 cells ([1]; Table 2: itraconazole 28 μM + simvastatin at row conc. c1 (0-48 μM)): 18.6% | Percent inhibition of Alamar Blue Metabolism in HCT116 cells ([1]; Table 3: itraconazole 0.87 μM + simvastatin sodium at row conc. c1 (0-22 μM)): −10.7% | Percent inhibition of Alamar Blue Metabolism in HCT116 cells ([1]; Table 3: itraconazole 7 μM + simvastatin sodium at row conc. c1 (0-22 μM)): 12.2% | Percent inhibition of Alamar Blue Metabolism in HCT116 cells ([1]; Table 3: itraconazole 14 μM + simvastatin sodium at row conc. c1 (0-22 μM)): 10.6% | Percent inhibition of Alamar Blue Metabolism in HCT116 cells ([1]; Table 3: itraconazole 28 μM + simvastatin sodium at row conc. c1 (0-22 μM)): 17.2% | Percent inhibition of Alamar Blue Metabolism in HCT116 cells ([1]; Table 7: itraconazole 0.87 μM + atorvastatin at row conc. c1 (0-36 μM)): 1.7% | Percent inhibition of Alamar Blue Metabolism in HCT116 cells ([1]; Table 7: itraconazole 7 μM + atorvastatin at row conc. c1 (0-36 μM)): 17.4% | Percent inhibition of Alamar Blue Metabolism in HCT116 cells ([1]; Table 7: itraconazole 14 μM + atorvastatin at row conc. c1 (0-36 μM)): 18.1% | Percent inhibition of Alamar Blue Metabolism in HCT116 cells ([1]; Table 7: itraconazole 28 μM + atorvastatin at row conc. c1 (0-36 μM)): 18.6% | Percent inhibition of Alamar Blue Metabolism in HCT116 cells ([1]; Table 11: itraconazole 0.87 μM + fluvastatin at row conc. c1 (0-49 μM)): 2.2% | Percent inhibition of Alamar Blue Metabolism in HCT116 cells ([1]; Table 11: itraconazole 7 μM + fluvastatin at row conc. c1 (0-49 μM)): 18.9% | Percent inhibition of Alamar Blue Metabolism in HCT116 cells ([1]; Table 11: itraconazole 14 μM + fluvastatin at row conc. c1 (0-49 μM)): 20.2% | Percent inhibition of Alamar Blue Metabolism in HCT116 cells ([1]; Table 11: itraconazole 28 μM + fluvastatin at row conc. c1 (0-49 μM)): 20.4% | Percent inhibition of Alamar Blue Metabolism in HCT116 cells ([1]; Table 14: itraconazole 0.87 μM + lovastatin at row conc. c1 (0-48 μM)): 5.1% | Percent inhibition of Alamar Blue Metabolism in HCT116 cells ([1]; Table 14: itraconazole 7 μM + lovastatin at row conc. c1 (0-48 μM)): 17.8% | Percent inhibition of Alamar Blue Metabolism in HCT116 cells ([1]; Table 14: itraconazole 14 μM + lovastatin at row conc. c1 (0-48 μM)): 19.5% | Percent inhibition of Alamar Blue Metabolism in HCT116 cells ([1]; Table 14: itraconazole 28 μM + lovastatin at row conc. c1 (0-48 μM)): 20.7% | Percent inhibition of Alamar Blue Metabolism in HCT116 cells ([1]; Table 15: itraconazole 0.87 μM + lovastatin sodium at row conc. c1 (0-22 μM)): −10.9% | Percent inhibition of Alamar Blue Metabolism in HCT116 cells ([1]; Table 15: itraconazole 7 μM + lovastatin sodium at row conc. c1 (0-22 μM)): 18.0% | Percent inhibition of Alamar Blue Metabolism in HCT116 cells ([1]; Table 15: itraconazole 14 μM + lovastatin sodium at row conc. c1 (0-22 μM)): 15.1% | Percent inhibition of Alamar Blue Metabolism in HCT116 cells ([1]; Table 15: itraconazole 28 μM + lovastatin sodium at row conc. c1 (0-22 μM)): 9.1% | Percent inhibition of Alamar Blue Metabolism in SKMEL-28 cells ([2]; Table 5: itraconazole 0.87 μM + simvastatin at row conc. c1 (0-48 μM)): 1.0% | Percent inhibition of Alamar Blue Metabolism in SKMEL-28 cells ([2]; Table 5: itraconazole 7 μM + simvastatin at row conc. c1 (0-48 μM)): 13.5% | Percent inhibition of Alamar Blue Metabolism in SKMEL-28 cells ([2]; Table 5: itraconazole 14 μM + simvastatin at row conc. c1 (0-48 μM)): 19.3% | Percent inhibition of Alamar Blue Metabolism in SKMEL-28 cells ([2]; Table 5: itraconazole 28 μM + simvastatin (0-48 μM)): 16.7% | Percent inhibition of Alamar Blue Metabolism in SKMEL-28 cells ([2]; Table 9: itraconazole 0.87 μM + atorvastatin at row conc. c1 (0-36 μM)): 1.4% | Percent inhibition of Alamar Blue Metabolism in SKMEL-28 cells ([2]; Table 9: itraconazole 7 μM + atorvastatin at row conc. c1 (0-36 μM)): 11.2% | Percent inhibition of Alamar Blue Metabolism in SKMEL-28 cells ([2]; Table 9: itraconazole 14 μM + atorvastatin at row conc. c1 (0-36 μM)): 13.0% | Percent inhibition of Alamar Blue Metabolism in SKMEL-28 cells ([2]; Table 9: itraconazole 28 μM + atorvastatin at row conc. c1 (0-36 μM)): 13.5% | Percent inhibition of Alamar Blue Metabolism in SKMEL-28 cells ([2]; Table 13: itraconazole 0.87 μM + fluvastatin at row conc. c1 (0-49 μM)): 2.8% | Percent inhibition of Alamar Blue Metabolism in SKMEL-28 cells ([2]; Table 13: itraconazole 7 μM + fluvastatin at row conc. c1 (0-49 μM)): 11.3% | Percent inhibition of Alamar Blue Metabolism in SKMEL-28 cells ([2]; Table 13: itraconazole 14 μM + fluvastatin at row conc. c1 (0-49 μM)): 13.3% | Percent inhibition of Alamar Blue Metabolism in SKMEL-28 cells ([2]; Table 13: itraconazole 28 μM + fluvastatin at row conc. c1 (0-49 μM)): 16.3% | Percent inhibition of Alamar Blue Metabolism in PANC1 cells ([3]; Table 4: itraconazole 0.87 μM + simvastatin at row conc. c1 (0-48 μM)): 2.6% | Percent inhibition of Alamar Blue Metabolism in PANC1 cells ([3]; Table 4: itraconazole 7 μM + simvastatin at row conc. c1 (0-48 μM)): −2.6% | Percent inhibition of Alamar Blue Metabolism in PANC1 cells ([3]; Table 4: itraconazole 14 μM + simvastatin at row conc. c1 (0-48 μM)): 2.1% | Percent inhibition of Alamar Blue Metabolism in PANC1 cells ([3]; Table 4: itraconazole 28 μM + simvastatin at row conc. c1 (0-48 μM)): 1.7% | Percent inhibition of Alamar Blue Metabolism in PANC1 cells ([3]; Table 8: itraconazole 0.87 μM + atorvastatin at row conc. c1 (0-36 μM)): 9.8% | Percent inhibition of Alamar Blue Metabolism in PANC1 cells ([3]; Table 8: itraconazole 7 μM + atorvastatin at row conc. c1 (0-36 μM)): −0.6% | Percent inhibition of Alamar Blue Metabolism in PANC1 cells ([3]; Table 8: itraconazole 14 μM + atorvastatin at row conc. c1 (0-36 μM)): −4.4% | Percent inhibition of Alamar Blue Metabolism in PANC1 cells ([3]; Table 8: itraconazole 28 μM + atorvastatin at row conc. c1 (0-36 μM)): −2.5% | Percent inhibition of Alamar Blue Metabolism in PANC1 cells ([3]; Table 12: itraconazole 0.87 μM + fluvastatin at row conc. c1 (0-49 μM)): 4.9% | Percent inhibition of Alamar Blue Metabolism in PANC1 cells ([3]; Table 12: itraconazole 7 μM + fluvastatin at row conc. c1 (0-49 μM)): −1.9% | Percent inhibition of Alamar Blue Metabolism in PANC1 cells ([3]; Table 12: itraconazole 14 μM + fluvastatin at row conc. c1 (0-49 μM)): −8.1% | Percent inhibition of Alamar Blue Metabolism in PANC1 cells ([3]; Table 12: itraconazole 28 μM + fluvastatin at row conc. c1 (0-49 μM)): −3.7% | Percent inhibition of Alamar Blue Metabolism in A549 cells ([4]; itraconazole 0.87 μM + simvastatin at row conc. c1 (0-48 μM)): 13.5% | Percent inhibition of Alamar Blue Metabolism in A549 cells ([4]; itraconazole 7 μM + simvastatin at row conc. c1 (0-48 μM)): 4.0% | Percent inhibition of Alamar Blue Metabolism in A549 cells ([4]; itraconazole 14 μM + simvastatin at row conc. c1 (0-48 μM)): 13.3% | Percent inhibition of Alamar Blue Metabolism in A549 cells ([4]; itraconazole 28 μM + simvastatin at row conc. c1 (0-48 μM)): 13.9% | Percent inhibition of Alamar Blue Metabolism in DU145 cells ([5]; Table 6: itraconazole 0.87 μM + atorvastatin at row conc. c1 (0-36 μM)): 0.8% | Percent inhibition of Alamar Blue Metabolism in DU145 cells ([5]; Table 6: itraconazole 7 μM + atorvastatin at row conc. c1 (0-36 μM)): −3.5% | Percent inhibition of Alamar Blue Metabolism in DU145 cells ([5]; Table 6: itraconazole 14 μM + atorvastatin at row conc. c1 (0-36 μM)): −4.2% | Percent inhibition of Alamar Blue Metabolism in DU145 cells ([5]; Table 6: itraconazole 28 μM + atorvastatin at row conc. c1 (0-36 μM)): −8.8% | Percent inhibition of Alamar Blue Metabolism in DU145 cells ([5]; Table 10: itraconazole 0.87 μM + fluvastatin at row conc. c1 (0-49 μM)): 2.1% | Percent inhibition of Alamar Blue Metabolism in DU145 cells ([5]; Table 10: itraconazole 7 μM + fluvastatin at row conc. c1 (0-49 μM)): −7.4% | Percent inhibition of Alamar Blue Metabolism in DU145 cells ([5]; Table 10: itraconazole 14 μM + fluvastatin at row conc. c1 (0-49 μM)): −5.6% | Percent inhibition of Alamar Blue Metabolism in DU145 cells ([5]; Table 10: itraconazole 28 μM + fluvastatin at row conc. c1 (0-49 μM)): −9.0%
